A short description of one data set: in vitro. As to conditions: human, bronchial epithelial cells, pH 7.2.
The subject of the next data set is sputum production. As to conditions: normal healthy volunteers; background section; cited from earlier work.
The next data set deals with T1, P2Y2 (Homo sapiens, UniProt P41231).
T1 construct: expressed in transfected cells
Nature of the data set: Inositol phosphate assay, P2Y2 receptor. The format is cell-based. The conditions noted are these: IA = no agonist activity at 30 μM. On the procedure: (§1) The pharmaceutical utility of the compounds of this invention is indicated by the inositol phosphate assay for P2Y2 and other P2Y receptor activity. This widely used assay, as described in E. Lazarowski, et al., Brit. J. Pharm. 116, 1619-27 (1995), relies on the measurement of inositol phosphate formation as a measurement of activity of compounds activating receptors linked via G-proteins to phospholipase C.
(§2) The compounds of Formula I was tested for its ability to elicit P2Y1, P2Y2, P2Y4 and P2Y6 receptor activity using the inositol phosphate assay as described by E. Lazarowski, et al., Brit. J. Pharm. 116, 1619-27 (1995).

The test system of a further data set is P2Y6. In words: Inositol phosphate assay, P2Y6 receptor. The format is cell-based. The conditions noted are these: IA = no agonist activity at 30 μM. The protocol:
as §1, §2

The subject of a further data set is P2Y1. Nature of the data set: Inositol phosphate assay, P2Y1 receptor. The format is cell-based. As to conditions: IA = no agonist activity at 30 μM. On the procedure:
as §1, §2

A further data set has as its target P2Y4 (Homo sapiens, UniProt P51582). In words: Inositol phosphate assay, P2Y4 receptor. In kind it is cell-based. The conditions noted are these: IA = no agonist activity at 30 μM. The protocol:
as §1, §2

Another data set deals with airway epithelial cells. The conditions noted are these: airway epithelial cells in vitro; S. Mason, et al. (1991); cited from earlier work.
The subject of data set [1] is lung mucociliary clearance. The conditions noted are these: normal volunteers; K. Olivier, et al. (1996); cited from earlier work.
A further data set relates to P2Y2 receptor. The conditions noted are these: H. Brown, et al. (1991); cited from earlier work.
The next data set relates to cough clearance. The conditions noted are these: patients with PCD; P. Noone, et al. (1996); cited from earlier work.
Data set [2] relates to human airway epithelial cells. As to conditions: human airway epithelial cells in vitro; D. Drutz, et al. (1996); cited from earlier work.
The subject of another data set is goblet cells. As to conditions: in vitro; M. Lethem, et al. (1993); cited from earlier work.
For a further data set, the system named is Type II alveolar cells. As to conditions: Gobran (1994); cited from earlier work.
The test system of data set [3] is human nasal epithelial cells. In words: Chloride secretion in human nasal airway cells (change in ISC). The format is cell-based. As to conditions: more potent than U2 P4; amiloride 100 μM present; apical addition. The protocol:
Airway epithelial cells were desegregated and isolated from freshly excised human nasal surgical specimens (Yankaskas, et al., Am. Rev. Respir. Dis. 132, 1281-1287 (1985)). Confluent monolayers were cultured on permeable collagen matrix supports in F-12 hormone-supplemented medium (Wu, et. al., Am. Rev. Respir. Dis. 132, 311-320 (1985)). Cells were incubated at 37° C. and grown to confluence. Development of transepithelial resistance was monitored to determine the formation of tight junctions between the cells. After formation of tight junctions, was confirmed, the matrix supports containing the cultures were mounted in modified Using chambers. […]
Polycarbonate Using chambers were milled to fit the plastic cups that supported the permeable collagen matrix on which the cells were grown. Bioelectric properties including ISC, transepithelial potential difference and resistance were monitored. Short-circuit current (ISC) was measured with a digital voltmeter (UNC Electronics, Chapel Hill, N.C.) and plotted on a strip-chart recorder. The open circuit potential was recorded periodically, and conductance was monitored in the voltage clamp mode by the current deflection in response to a 10-mV voltage pulse.
A stable baseline of ISC was recorded and amiloride (100 μM) was added to the solution bathing the apical surface to block sodium absorption. […] The change in ISC was recorded. […]

By pEC50 is commonly meant the negative decadic logarithm of the EC50, by convention in mol/L. Read a low pEC50 as a large EC50.

Each structure is given as a SMILES string. pEC50: −log10 of the molar value.

T1 sequence (P41231 whole entry): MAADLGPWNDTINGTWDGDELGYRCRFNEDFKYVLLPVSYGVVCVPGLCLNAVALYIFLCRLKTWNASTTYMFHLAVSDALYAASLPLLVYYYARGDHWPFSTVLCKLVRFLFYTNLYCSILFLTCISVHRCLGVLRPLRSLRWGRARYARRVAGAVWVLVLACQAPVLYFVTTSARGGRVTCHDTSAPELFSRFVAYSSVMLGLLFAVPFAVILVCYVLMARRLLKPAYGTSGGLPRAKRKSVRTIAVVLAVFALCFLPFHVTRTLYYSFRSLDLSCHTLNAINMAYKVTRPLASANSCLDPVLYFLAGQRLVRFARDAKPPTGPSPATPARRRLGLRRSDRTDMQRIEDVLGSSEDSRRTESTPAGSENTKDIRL
Chain of P2Y4 (P51582 whole entry, species assumed): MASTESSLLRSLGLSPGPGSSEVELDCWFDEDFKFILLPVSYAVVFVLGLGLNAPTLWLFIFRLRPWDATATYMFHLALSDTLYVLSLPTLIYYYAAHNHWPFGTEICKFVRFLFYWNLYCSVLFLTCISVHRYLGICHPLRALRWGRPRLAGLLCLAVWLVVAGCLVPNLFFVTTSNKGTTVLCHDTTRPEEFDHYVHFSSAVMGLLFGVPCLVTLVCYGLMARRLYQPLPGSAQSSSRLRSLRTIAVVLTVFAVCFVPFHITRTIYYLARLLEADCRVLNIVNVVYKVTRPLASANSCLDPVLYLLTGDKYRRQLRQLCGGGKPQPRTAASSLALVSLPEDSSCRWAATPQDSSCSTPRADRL
Protocol for in vitro: Epithelial cells were grown as monolayers on an airliquid interface in ALI medium. Assays were conducted on fully differentiated cells in KRB-Ringer solution (pH 7.2) at 37° C. with 0.1 mM nucleotide substrate. Aliquots of airway surface liquid were removed at 5, 10, 15, 20, 40 and 60 minutes. The metabolism was stopped by boiling and filtering the aliquots, and the samples were analyzed by high performance liquid chromatography using the following conditions: C- 18 column with a 55 min gradient of 10-100 mM KH2 PO4 and constant 8 mM tetrabutyl ammonium hydrogen sulfate and 10% methanol).

In the data set “in vitro”, `O=c1ccn([C@@H]2O[C@H](COP(=O)(O)OP(=O)(O)OP(=O)(O)OP(=O)(O)OC[C@H]3O[C@@H](n4ccc(=O)[nH]c4=O)[C@H](O)[C@@H]3O)[C@@H](O)[C@H]2O)c(=O)[nH]1` [U2 P4, P^1,P^4 -Di(uridine 5'-)tetraphosphate] showed a metabolised at 1 h, 100 µM of 40%. Further, the sputum production result in the data set with sputum production was “increase sputum production”.
For the compound `Nc1ccn([C@@H]2O[C@H](COP(=O)(O)OP(=O)(O)OP(=O)(O)OP(=O)(O)OC[C@H]3O[C@@H](n4ccc(N)nc4=O)[C@H](O)[C@@H]3O)[C@@H](O)[C@H]2O)c(=O)n1` [C2 P4], the pEC50 at P2Y2, with P2Y6, with P2Y1 and at P2Y4 was less than 4.52 in each case.
With `O=c1ccn([C@@H]2O[C@H](COP(=O)(O)OP(=O)(O)OP(=O)(O)O)[C@@H](O)[C@H]2O)c(=O)[nH]1` [UTP, uridine 5'-triphosphate], the “Cl^- secretion” value in the data set with airway epithelial cells was “increase Cl^- secretion”. Moreover, in data set [1], the lung mucociliary clearance entry is “improvement in lung mucociliary clearance” and the side-effects result was “without any significant side-effects”. In “in vitro”, this compound had a metabolised at 1 h, 100 µM of 100%. Also, the “intracellular Ca^++” value in the data set with P2Y2 receptor was “increase intracellular Ca^++”. Moreover, in the data set on cough clearance, the cough clearance entry is on record as “significantly enhances cough clearance”. For the same compound, in [2], the cilia beat frequency entry is recorded as “increase cilia beat frequency”. In addition, the “mucin secretion by goblet cells” value in the data set on goblet cells was “increase both the rate and total amount of mucin secretion”. Moreover, the “release of surfactant from Type II alveolar cells” value with Type II alveolar cells is recorded as “release of surfactant”.
Consider `Nc1ccn([C@@H]2O[C@H](COP(=O)(O)OP(=O)(O)OP(=O)(O)OP(=O)(O)OC[C@H]3O[C@@H](n4ccc(=O)[nH]c4=O)[C@H](O)[C@@H]3O)[C@@H](O)[C@H]2O)c(=O)n1` [CP4 U, P^1-(cytidine 5'-)-P^4-(uridine 5'-)-tetraphosphate], for which the pEC50 was 6.35 on P2Y2, 5.46 in the data set with P2Y6, less than 4.52 in the data set with P2Y1 and 6.19 on P2Y4. Also, the “potency relative to U2 P4 in the chloride secretion assay” value in [3] is on record as “approximately ten-fold”.

(Values after patent publication US6323187A, “Therapeutic dinucleotide and derivatives” (priority 1999, dated 2001).)
